Test [1] relates to KRAS^G12C-mutated MIA-PA-CA-2 cells. The test can be described thus: Inhibition of proliferation of KRAS^G12C-mutated MIA-PA-CA-2 cells (CellTiter-Glo, 72 h). The test is classed as cell-based, human. As to the method: Compounds were assayed for IC50 of inhibition of proliferation of KRAS^G12C-mutated MIA-PA-CA-2 cells.
The main reagent used in this assay included CellTiter-Glo (Promega, Cat. No. G7573).
The main instrument used in this assay was PerkinElmer EnVision multi-function microplate reader.
1.4 Method of the Assay • 1) Adherent cells were digested with trypsin to form a cell suspension, and the cell suspension was counted for later use. • 2) An appropriate amount of cells was added into a centrifuge tube, and a cell culture medium was added to make up the required volume; then the cells were plated to a 96-well plate at a final density of 2000 cells/well, 100 μL of culture medium. • 3) After incubating for 24 hr, the compound was formulated to 10 mM with DMSO, and serially diluted 3-fold with DPBS (Dulbecco's Phosphate Buffered Saline) to 9 points; 10 μL was added to each well in duplicate. 10 μL of DPBS per well was added to the assay control wells (Con). • 4) On the same day, 50 μL of CellTiter Glo was added to another cell culture plate without compounds, and the fluorescence value was read by EnVision. […] The fluorescence value was read by EnVision. • 6) Data analysis: The inhibition rate of cells in each well was calculated according to the following equation: […]
A general note: ATP-based viability assays read luminescence as a measure of living cells.

Test [2] relates to KRAS^G12C-mutated H358 cells. The experiment in a line: H358 cell assay: inhibition of proliferation (CellTiter-Glo, 5 days). Particulars: NCI-H358 cells, 5 days incubation. The test is classed as cell-based. On the procedure: Compounds were assayed for IC50 of inhibition of proliferation of KRAS^G12C-mutated H358 cells.
The main instrument used in this assay was a Nivo multi-label analyzer (PerkinElmer).
2.4 Method of the Assay: • 1) NCI-H358 cells were inoculated in a white 96-well plate, and each well contained 80 μL of cell suspension and 4000 NCI-H358 cells. […] The assay was carried out in duplicate. 78 μL of medium was added to the intermediate plate, and then 2 μL of the serially diluted compound was transferred to each well of the intermediate plate according to the corresponding position. After mixing well, 20 μL per well was transferred to the cell plate. […] The cell plate was incubated in a carbon dioxide incubator for 5 days. Another cell plate was prepared, and the signal value of the cell plate was read on the day of compound addition as the maximum value (Max value in the equation below) to participate in data analysis. 25 μL of cell viability chemiluminescence detection reagent was added to each well of the cell plate, and the plate was incubated at room temperature for 10 minutes to stabilize the luminescence signal. A multi-label analyzer was used for reading the plate. • 3) […]

Molecules are shown by their SMILES. Counter-ions that a name gives are not always drawn.

By IC50 is commonly meant the concentration that gives 50% inhibition. `C=C(F)C(=O)N1CCN(c2nc(OCC3CCCN3C)nc3c2COC(c2c(F)c(N)cc(C)c2C(F)(F)F)C3)CC1CC#N` (single isomer, unassigned) [8B hydrochloride]: the half-maximal inhibitory concentration (IC50) in test [1] (72 h incubation) is 2.7 nM; in test [2] it was under 4.6 nM.

Consider `C=CC(=O)N1CCN(c2nc(OC[C@@H]3CCCN3C)nc3c2COC(c2cccc4cccc(Cl)c24)C3)C[C@@H]1CC#N` (some centres unmarked) [Compound 2], for which inhibition in test [2] was half-maximal at 19 nM (IC50). As for `C=CC(=O)N1CCN(c2nc(OCC3CCCN3C)nc3c2COC(c2c(F)c(N)cc(C)c2C(F)(F)F)C3)C(C)C1` (single isomer, unassigned) [Compound 18B], the IC50 was determined as 3.29 nM in test [1] (72 h incubation) and 4.7 nM in test [2]. For `C=CC(=O)N1CCN(c2nc(OC[C@@H]3CCCN3C)nc3c2COC(c2c(F)c(N)cc(C)c2C(F)(F)F)C3)[C@H](C)C1` (some centres unmarked) [Compound 13], in test [2] (Homo sapiens, 120 h), the 50% inhibitory concentration (IC50) was determined as 32.6 nM. As for `C=CC(=O)N1CCN(c2nc(OCC34CCCN3CCC4)nc3c2COC(c2c(F)c(N)cc(C)c2C(F)(F)F)C3)C(C)C1` (centres unmarked) [Compound 12], the values for the IC50 in test [1] (72 h incubation) and in test [2] were 1.3 nM and 2.5 nM, respectively. In test [2], `C=CC(=O)N1CCN(c2nc(OCC3CCCN3C)nc3c2COC(c2c(Cl)c(C)cc4[nH]ncc24)C3)CC1CC#N` (single isomer, unassigned) [Compound 5B] registered a half-inhibitory concentration (IC50) of 12.9 nM. On to `C=CC(=O)N1CCN(c2nc(OC[C@@H]3CCCN3C)nc3c2CN(C)C(c2cccc4ccccc24)C3)C[C@@H]1CC#N` (some centres unmarked) [Compound 1], for which the IC50 in test [1] (72 h incubation) amounted to 5.21 nM; in test [2] it was 68.2 nM. `C=CC(=O)N1C[C@H](C)N(c2nc(OC[C@@H]3CCCN3C)nc3c2COC(c2c(F)c(N)cc(C)c2C(F)(F)F)C3)C[C@H]1C` (some centres unmarked) [Compound 11] registered an IC50 in test [2] of 6.7 nM. As to `C=C(F)C(=O)N1CCN(c2nc(OCC34CCCN3CCC4)nc3c2COC(c2c(F)c(N)cc(C)c2C(F)(F)F)C3)C[C@@H]1CC#N` (some centres unmarked) [Compound 16], the IC50 was determined as 2.22 nM in test [1] (Homo sapiens, MIA PaCa-2, 72 h incubation) and 1.7 nM in test [2] (Homo sapiens, 120 h).

In test [2], `C=CC(=O)N1CCN(c2nc(OCC3CCCN3C)nc3c2CNC(c2c(Cl)c(C)cc4[nH]ncc24)C3)CC1CC#N` (single isomer, unassigned) [4B hydrochloride] yielded a concentration for half-maximal inhibition (IC50) of 27 nM.

`C=CC(=O)N1CCN(c2nc(OC[C@@H]3CCCN3C)nc3c2COC(c2c(F)c(N)cc(C)c2C(F)(F)F)C3)C[C@@H]1C` (some centres unmarked) [Compound 10]: in test [2] (Homo sapiens, 120 h), the IC50 came out at 70 nM. With `C=CC(=O)N1CCN(c2nc(OCC3CC(F)CN3C)nc3c2COC(c2c(F)c(N)cc(C)c2C(F)(F)F)C3)C(C)C1` (single isomer, unassigned) [Compound 9B], the 50% inhibitory concentration (IC50) in test [1] (72 h incubation) was found to be 6.98 nM; in test [2], 5.5 nM.

As to `C=CC(=O)N1CCN(c2nc(OCC3CCCN3C)nc3c2CN(C)C(c2c(Cl)c(C)cc4[nH]ncc24)C3)CC1CC#N` (single isomer, unassigned) [Compound 6A], in test [2], the IC50 is under 4.6 nM. On to `C=CC(=O)N1CCN(c2nc(OC[C@@H]3CCCN3C)nc3c2COC(c2c(F)c(N)cc(C)c2C(F)(F)F)C3)C[C@H]1C` (some centres unmarked) [Compound 15], for which, in test [2] (Homo sapiens, 120 h), the midpoint of inhibition, the IC50, lay at 9.2 nM.
